The values below come from US9776995B2, “Bicyclic sulfonamide compounds as sodium channel inhibitors” (AMGEN INC., priority 2013, dated 2017).

Like-named read-outs stand apart in the source and are kept apart here.

The target in one data set is Nav 1.7 (Homo sapiens (Human), UniProt Q15858). The experiment in a line: in-vitro Nav 1.7 PX data. The format is cell-based.
For another data set, the target named is Nav 1.5 (Homo sapiens (Human), UniProt Q14524). Nature of the data set: in-vitro Nav 1.5 PX data. The settings on record: read-out: Nav 1.5 PX IC50.
Chain of Nav 1.5 (Q14524 whole entry): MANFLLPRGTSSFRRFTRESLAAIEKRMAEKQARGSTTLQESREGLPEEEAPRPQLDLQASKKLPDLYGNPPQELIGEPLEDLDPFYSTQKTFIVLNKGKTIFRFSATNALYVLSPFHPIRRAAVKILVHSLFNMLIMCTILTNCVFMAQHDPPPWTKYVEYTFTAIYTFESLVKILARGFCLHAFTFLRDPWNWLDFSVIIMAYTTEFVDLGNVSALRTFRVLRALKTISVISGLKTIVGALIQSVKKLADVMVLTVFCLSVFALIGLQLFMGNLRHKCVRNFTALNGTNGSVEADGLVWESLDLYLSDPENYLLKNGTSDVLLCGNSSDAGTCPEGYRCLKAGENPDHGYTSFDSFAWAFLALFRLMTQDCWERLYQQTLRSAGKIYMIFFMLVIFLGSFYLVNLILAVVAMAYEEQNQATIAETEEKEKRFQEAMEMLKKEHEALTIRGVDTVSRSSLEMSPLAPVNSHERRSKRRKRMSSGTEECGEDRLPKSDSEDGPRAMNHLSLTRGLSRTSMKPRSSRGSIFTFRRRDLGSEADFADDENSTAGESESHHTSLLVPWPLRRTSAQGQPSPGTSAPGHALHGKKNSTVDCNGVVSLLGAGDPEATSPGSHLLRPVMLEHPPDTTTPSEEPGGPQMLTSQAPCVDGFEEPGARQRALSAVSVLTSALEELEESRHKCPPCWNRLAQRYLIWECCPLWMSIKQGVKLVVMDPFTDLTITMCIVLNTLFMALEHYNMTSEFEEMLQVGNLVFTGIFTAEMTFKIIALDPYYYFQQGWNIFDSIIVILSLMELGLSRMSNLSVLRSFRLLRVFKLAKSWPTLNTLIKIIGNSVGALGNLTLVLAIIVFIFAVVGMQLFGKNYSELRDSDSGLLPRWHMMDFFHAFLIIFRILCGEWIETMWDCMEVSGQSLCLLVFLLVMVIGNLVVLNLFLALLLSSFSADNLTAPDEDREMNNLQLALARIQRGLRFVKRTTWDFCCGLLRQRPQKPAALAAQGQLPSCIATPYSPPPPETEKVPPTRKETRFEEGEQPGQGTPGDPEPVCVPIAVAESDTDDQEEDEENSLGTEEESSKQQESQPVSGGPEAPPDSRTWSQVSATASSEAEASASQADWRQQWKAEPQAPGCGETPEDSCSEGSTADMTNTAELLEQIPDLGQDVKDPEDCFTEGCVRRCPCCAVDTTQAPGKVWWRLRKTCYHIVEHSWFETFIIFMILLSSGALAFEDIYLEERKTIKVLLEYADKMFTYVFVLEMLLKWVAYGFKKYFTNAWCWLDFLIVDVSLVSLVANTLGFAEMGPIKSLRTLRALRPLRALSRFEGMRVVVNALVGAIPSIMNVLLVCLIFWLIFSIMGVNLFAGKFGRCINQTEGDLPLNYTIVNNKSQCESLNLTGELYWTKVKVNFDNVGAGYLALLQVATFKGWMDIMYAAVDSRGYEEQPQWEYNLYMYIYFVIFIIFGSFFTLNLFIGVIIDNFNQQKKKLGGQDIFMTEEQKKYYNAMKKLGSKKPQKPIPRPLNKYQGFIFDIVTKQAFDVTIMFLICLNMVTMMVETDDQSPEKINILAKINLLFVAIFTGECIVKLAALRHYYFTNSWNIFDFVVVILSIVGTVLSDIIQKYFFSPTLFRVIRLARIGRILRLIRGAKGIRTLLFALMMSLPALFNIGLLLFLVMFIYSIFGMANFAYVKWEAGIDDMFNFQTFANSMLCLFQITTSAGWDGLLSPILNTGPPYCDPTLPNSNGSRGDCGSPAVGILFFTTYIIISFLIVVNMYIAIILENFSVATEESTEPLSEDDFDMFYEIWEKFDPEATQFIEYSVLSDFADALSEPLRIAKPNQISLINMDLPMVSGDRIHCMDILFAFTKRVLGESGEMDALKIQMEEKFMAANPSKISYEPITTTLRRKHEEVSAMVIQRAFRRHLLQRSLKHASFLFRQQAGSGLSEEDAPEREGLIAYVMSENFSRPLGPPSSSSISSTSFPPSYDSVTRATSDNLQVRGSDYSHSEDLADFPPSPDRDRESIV

Chain of Nav 1.7 (Q15858 whole entry): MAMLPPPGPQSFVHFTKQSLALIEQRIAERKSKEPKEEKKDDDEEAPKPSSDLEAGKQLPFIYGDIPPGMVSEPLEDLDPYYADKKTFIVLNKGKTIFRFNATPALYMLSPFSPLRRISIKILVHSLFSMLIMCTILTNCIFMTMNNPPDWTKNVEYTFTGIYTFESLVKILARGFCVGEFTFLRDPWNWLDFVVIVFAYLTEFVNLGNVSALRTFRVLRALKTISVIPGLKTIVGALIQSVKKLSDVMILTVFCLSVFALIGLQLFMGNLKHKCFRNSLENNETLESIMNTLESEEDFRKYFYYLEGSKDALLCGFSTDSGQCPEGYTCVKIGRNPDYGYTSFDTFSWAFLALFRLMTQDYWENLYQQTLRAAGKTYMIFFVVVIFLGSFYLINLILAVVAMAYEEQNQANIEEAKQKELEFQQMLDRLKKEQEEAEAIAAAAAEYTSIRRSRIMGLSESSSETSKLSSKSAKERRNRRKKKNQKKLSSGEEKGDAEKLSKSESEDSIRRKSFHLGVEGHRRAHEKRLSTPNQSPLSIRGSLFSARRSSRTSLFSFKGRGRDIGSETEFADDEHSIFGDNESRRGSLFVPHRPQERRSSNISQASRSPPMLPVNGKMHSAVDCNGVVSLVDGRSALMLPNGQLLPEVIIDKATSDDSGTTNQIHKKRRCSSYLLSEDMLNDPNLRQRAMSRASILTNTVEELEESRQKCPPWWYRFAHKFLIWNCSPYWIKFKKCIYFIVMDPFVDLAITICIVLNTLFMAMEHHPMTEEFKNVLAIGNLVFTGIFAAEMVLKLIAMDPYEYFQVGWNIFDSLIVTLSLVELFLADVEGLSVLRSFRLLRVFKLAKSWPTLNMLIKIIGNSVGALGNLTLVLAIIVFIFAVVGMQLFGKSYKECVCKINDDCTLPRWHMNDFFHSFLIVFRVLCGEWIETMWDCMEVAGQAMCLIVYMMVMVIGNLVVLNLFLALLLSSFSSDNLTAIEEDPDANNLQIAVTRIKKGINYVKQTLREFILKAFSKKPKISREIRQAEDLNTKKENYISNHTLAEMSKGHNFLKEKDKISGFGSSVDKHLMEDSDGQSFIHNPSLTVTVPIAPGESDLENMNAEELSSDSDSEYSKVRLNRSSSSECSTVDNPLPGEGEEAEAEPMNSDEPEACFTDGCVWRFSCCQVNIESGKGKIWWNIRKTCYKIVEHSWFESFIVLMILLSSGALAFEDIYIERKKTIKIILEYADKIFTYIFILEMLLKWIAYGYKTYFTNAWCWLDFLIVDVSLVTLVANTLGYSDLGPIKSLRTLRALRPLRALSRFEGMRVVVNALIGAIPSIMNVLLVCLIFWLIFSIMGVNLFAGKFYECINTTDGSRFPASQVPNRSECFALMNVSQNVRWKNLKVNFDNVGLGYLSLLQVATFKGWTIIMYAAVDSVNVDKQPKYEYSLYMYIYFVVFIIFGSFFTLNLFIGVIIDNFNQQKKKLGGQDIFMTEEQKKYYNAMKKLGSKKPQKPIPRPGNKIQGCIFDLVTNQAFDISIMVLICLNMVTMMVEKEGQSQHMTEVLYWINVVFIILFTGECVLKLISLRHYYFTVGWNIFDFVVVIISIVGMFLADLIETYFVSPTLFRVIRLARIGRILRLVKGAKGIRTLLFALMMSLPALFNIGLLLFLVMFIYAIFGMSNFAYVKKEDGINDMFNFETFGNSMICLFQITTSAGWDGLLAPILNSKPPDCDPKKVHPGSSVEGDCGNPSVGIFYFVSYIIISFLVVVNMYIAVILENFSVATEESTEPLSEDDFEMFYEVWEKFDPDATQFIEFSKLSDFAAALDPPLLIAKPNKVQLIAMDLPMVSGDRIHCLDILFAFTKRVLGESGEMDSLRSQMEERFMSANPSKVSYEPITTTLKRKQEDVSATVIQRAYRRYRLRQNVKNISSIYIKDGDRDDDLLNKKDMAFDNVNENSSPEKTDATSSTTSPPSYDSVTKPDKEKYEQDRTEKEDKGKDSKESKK

The term IC50 denotes the concentration needed to halve the response being measured. On to `COc1cc(-c2cc(C)cc(Cl)c2)c(C#N)cc1-c1nccc2cc(S(=O)(=O)Nc3ccon3)ccc12` [Example 114, 1-(3′-chloro-2-cyano-5-methoxy-5′-methyl-4-biphenylyl)-N-3-isoxazolyl-6-isoquinolinesulfonamide], for which the figures for the IC50 at Nav 1.7 (in-vitro PX data) and on Nav 1.5 (in-vitro PX data) were 28.8 nM and above 10000 nM, respectively.

In the case of `COc1cc(-c2cccc(C(F)(F)F)c2)c(F)cc1-c1nccc2cc(S(=O)(=O)Nc3ccon3)ccc12` [Example 115, 1-(2-fluoro-5-methoxy-3′-(trifluoromethyl)-4-biphenylyl)-N-3-isoxazolyl-6-isoquinolinesulfonamide], the IC50 at Nav 1.7 (in-vitro PX data) was 13.5 nM; at Nav 1.5 (in-vitro PX data), above 10000 nM.

In the case of `COc1cc(-c2cccc(C(F)(F)F)c2)c(C#N)cc1-c1nccc2cc(S(=O)(=O)Nc3ncon3)ccc12` [Example 118, 1-(2-cyano-5-methoxy-3′-(trifluoromethyl)-4-biphenylyl)-N-1,2,4-oxadiazol-3-yl-6-isoquinolinesulfonamide], the IC50 is 21 nM at Nav 1.7 (in-vitro PX data) and above 10000 nM at Nav 1.5 (in-vitro PX data).

Regarding `COc1cc(-c2cccc(F)c2)c(Cl)cc1-c1nccc2cc(S(=O)(=O)Nc3cccnn3)ccc12` [Example 120, 1-(2-chloro-3′-fluoro-5-methoxy-4-biphenylyl)-N-3-pyridazinyl-6-isoquinolinesulfonamide], the IC50 at Nav 1.7 (in-vitro PX data) is 141 nM; at Nav 1.5 (in-vitro PX data) it was above 10000 nM.

As to `COc1cc(Cl)c(-c2cccc(F)c2)cc1-c1nccc2cc(S(=O)(=O)Nc3ccon3)ccc12` [Example 121, 1-(6-chloro-3′-fluoro-4-methoxy-3-biphenylyl)-N-3-isoxazolyl-6-isoquinolinesulfonamide], the IC50 on Nav 1.7 (in-vitro PX data) is 91.7 nM; at Nav 1.5 (in-vitro PX data) it was above 10000 nM.

Consider `COc1cc(Cl)c(-c2cccc(F)c2)cc1-c1nccc2cc(S(=O)(=O)Nc3ncccn3)ccc12` [Example 122, 1-(6-chloro-3′-fluoro-4-methoxy-3-biphenylyl)-N-2-pyrimidinyl-6-isoquinolinesulfonamide], for which the results for the IC50 on Nav 1.7 (in-vitro PX data) and at Nav 1.5 (in-vitro PX data) were 112 nM and above 10000 nM, respectively.

For the molecule `COc1cc(-c2cc(F)cc(F)c2)ccc1-c1nccc2cc(S(=O)(=O)Nc3ncccn3)ccc12` [Example 123, 1-(3′,5′-difluoro-3-methoxy-4-biphenylyl)-N-2-pyrimidinyl-6-isoquinolinesulfonamide], the IC50 on Nav 1.7 (in-vitro PX data) is 171 nM; at Nav 1.5 (in-vitro PX data), above 10000 nM.

With `COc1cc(NS(=O)(=O)c2ccc3c(-c4ccc(-c5cc(F)cc(F)c5)cc4OC)nccc3c2)ncn1` [Example 125, 1-(3′,5′-difluoro-3-methoxy-4-biphenylyl)-N-(6-methoxy-4-pyrimidinyl)-6-isoquinolinesulfonamide], the concentration for half-maximal inhibition (IC50) against Nav 1.7 (in-vitro PX data) is 497 nM; on Nav 1.5 (in-vitro PX data), above 10000 nM.

For `COc1cc(-c2cc(F)cc(F)c2)ccc1-c1nccc2cc(S(=O)(=O)Nc3ncon3)ccc12` [Example 127, 1-(3′,5′-difluoro-3-methoxy-4-biphenylyl)-N-1,2,4-oxadiazol-3-yl-6-isoquinolinesulfonamide], the 50% inhibitory concentration (IC50) against Nav 1.7 (in-vitro PX data) is 106 nM; on Nav 1.5 (in-vitro PX data), above 10000 nM.

In the case of `COc1cc(-c2cc(F)cc(F)c2)ccc1-c1nccc2cc(S(=O)(=O)Nc3cnsn3)ccc12` [Example 129, 1-(3′,5′-difluoro-3-methoxy-4-biphenylyl)-N-1,2,5-thiadiazol-3-yl-6-isoquinolinesulfonamide], the half-inhibitory concentration (IC50) against Nav 1.7 (in-vitro PX data) is 428 nM; at Nav 1.5 (in-vitro PX data), above 10000 nM.

For `COc1cc(-c2cc(F)cc(F)c2)ccc1-c1nccc2cc(S(=O)(=O)Nc3nc(C)ns3)ccc12` [Example 130, 1-(3′,5′-difluoro-3-methoxy-4-biphenylyl)-N-(3-methyl-1,2,4-thiadiazol-5-yl)-6-isoquinolinesulfonamide], the half-inhibitory concentration (IC50) against Nav 1.7 (in-vitro PX data) is 1040 nM; at Nav 1.5 (in-vitro PX data) it was above 30000 nM.

For `COc1cc(-c2cc(F)cc(F)c2)ccc1-c1nccc2cc(S(=O)(=O)Nc3ncc(F)cn3)ccc12` [Example 135, 1-(3′,5′-difluoro-3-methoxy-4-biphenylyl)-N-(5-fluoro-2-pyrimidinyl)-6-isoquinolinesulfonamide], the IC50 against Nav 1.7 (in-vitro PX data) was 378 nM; on Nav 1.5 (in-vitro PX data), above 10000 nM.

As to `COc1cc(-c2cc(F)cc(F)c2)ccc1-c1nccc2cc(S(=O)(=O)Nc3ncco3)ccc12` [Example 137, 1-(3′,5′-difluoro-3-methoxy-4-biphenylyl)-N-1,3-oxazol-2-yl-6-isoquinolinesulfonamide], the results for the IC50 against Nav 1.7 (in-vitro PX data) and at Nav 1.5 (in-vitro PX data) were 360 nM and above 10000 nM, respectively.

Consider `COc1cc(-c2cc(F)cc(F)c2)ccc1-c1nccc2cc(S(=O)(=O)Nc3cccnn3)ccc12` [Example 138, 1-(3′,5′-difluoro-3-methoxy-4-biphenylyl)-N-3-pyridazinyl-6-isoquinolinesulfonamide], for which the IC50 at Nav 1.7 (in-vitro PX data) is 251 nM; on Nav 1.5 (in-vitro PX data) it was above 10000 nM.

For the molecule `COc1cc(-c2cc(F)cc(F)c2)ccc1-c1nccc2cc(S(=O)(=O)Nc3ccon3)ccc12` [Example 142, 1-(3′,5′-difluoro-3-methoxy-4-biphenylyl)-N-3-isoxazolyl-6-isoquinolinesulfonamide], the half-inhibitory concentration (IC50) on Nav 1.7 (in-vitro Nav 1.7 PX data) was 168 nM; at Nav 1.5 (in-vitro Nav 1.5 PX data), above 30000 nM.

Take `COc1cc(-c2cccc(F)c2)c(C#N)cc1-c1nccc2cc(S(=O)(=O)Nc3ccncn3)ccc12` [Example 144, 1-(2-cyano-3′-fluoro-5-methoxy-4-biphenylyl)-N-4-pyrimidinyl-6-isoquinolinesulfonamide]: the concentration for half-maximal inhibition (IC50) was 106 nM at Nav 1.7 (in-vitro Nav 1.7 PX data) and above 10000 nM on Nav 1.5 (in-vitro Nav 1.5 PX data).

`O=S(=O)(Nc1ccon1)c1ccc2c(-c3ccc(-c4cccc(C(F)(F)F)c4)cc3CO)nccc2c1` [Example 146, 1-(3-(hydroxymethyl)-3′-(trifluoromethyl)-4-biphenylyl)-N-3-isoxazolyl-6-isoquinolinesulfonamide]: the IC50 against Nav 1.7 (in-vitro Nav 1.7 PX data) was 120 nM; on Nav 1.5 (in-vitro Nav 1.5 PX data), above 10000 nM.

Take `COc1ccc(-c2ccc(C(F)(F)F)cc2)cc1-c1nccc2cc(S(=O)(=O)Nc3ccncn3)ccc12` [Example 147, 1-(4-methoxy-4′-(trifluoromethyl)-3-biphenylyl)-N-4-pyrimidinyl-6-isoquinolinesulfonamide]: the IC50 against Nav 1.7 (in-vitro Nav 1.7 PX data) is 71.9 nM; at Nav 1.5 (in-vitro Nav 1.5 PX data), above 10000 nM.

Take `Cc1ccc(OCc2ccccc2)cc1-c1nccc2cc(S(=O)(=O)Nc3ccncn3)ccc12` [Example 151, 1-(5-(benzyloxy)-2-methylphenyl)-N-4-pyrimidinyl-6-isoquinolinesulfonamide]: the IC50 is 424 nM on Nav 1.7 (in-vitro Nav 1.7 PX data) and above 30000 nM on Nav 1.5 (in-vitro Nav 1.5 PX data).

With `COc1cc(-c2ccc(Cl)c(F)c2)c(C#N)cc1-c1nccc2cc(S(=O)(=O)Nc3ccncn3)ccc12` [Example 154, 1-(4′-chloro-2-cyano-3′-fluoro-5-methoxy-4-biphenylyl)-N-4-pyrimidinyl-6-isoquinolinesulfonamide], the results for the half-inhibitory concentration (IC50) on Nav 1.7 (in-vitro Nav 1.7 PX data) and on Nav 1.5 (in-vitro Nav 1.5 PX data) were 43.5 nM and above 30000 nM, respectively.

For the molecule `COc1cc(-c2ccc(F)c(C)c2)c(C#N)cc1-c1nccc2cc(S(=O)(=O)Nc3ccncn3)ccc12` [Example 155, 1-(2-cyano-4′-fluoro-5-methoxy-3′-methyl-4-biphenylyl)-N-4-pyrimidinyl-6-isoquinolinesulfonamide], the IC50 at Nav 1.7 (in-vitro Nav 1.7 PX data) amounted to 45.5 nM; on Nav 1.5 (in-vitro Nav 1.5 PX data) it was 23400 nM.

As for `COc1cc(-c2cccc(C)c2)c(C#N)cc1-c1nccc2cc(S(=O)(=O)Nc3ccncn3)ccc12` [Example 156, 1-(2-cyano-5-methoxy-3′-methyl-4-biphenylyl)-N-4-pyrimidinyl-6-isoquinolinesulfonamide], the results for the IC50 against Nav 1.7 (in-vitro Nav 1.7 PX data) and on Nav 1.5 (in-vitro Nav 1.5 PX data) were 47.3 nM and 30800 nM, respectively.

In the case of `COc1cc(-c2ccccc2C)c(C#N)cc1-c1nccc2cc(S(=O)(=O)Nc3ccncn3)ccc12` [Example 157, 1-(2-cyano-5-methoxy-2′-methyl-4-biphenylyl)-N-4-pyrimidinyl-6-isoquinolinesulfonamide], the IC50 against Nav 1.7 (in-vitro Nav 1.7 PX data) was 206 nM; at Nav 1.5 (in-vitro Nav 1.5 PX data), above 10000 nM.

Consider `COc1cc(-c2ccc(F)c(Cl)c2)c(C#N)cc1-c1nccc2cc(S(=O)(=O)Nc3ccncn3)ccc12` [Example 158, 1-(3′-chloro-2-cyano-4′-fluoro-5-methoxy-4-biphenylyl)-N-4-pyrimidinyl-6-isoquinolinesulfonamide], for which the IC50 is 19.4 nM on Nav 1.7 (in-vitro Nav 1.7 PX data) and 5850 nM on Nav 1.5 (in-vitro Nav 1.5 PX data).

As for `COc1cc(-c2ccc(C)c(Cl)c2)c(C#N)cc1-c1nccc2cc(S(=O)(=O)Nc3ccncn3)ccc12` [Example 159, 1-(3′-chloro-2-cyano-5-methoxy-4′-methyl-4-biphenylyl)-N-4-pyrimidinyl-6-isoquinolinesulfonamide], the IC50 is 38.7 nM on Nav 1.7 (in-vitro Nav 1.7 PX data) and above 30000 nM at Nav 1.5 (in-vitro Nav 1.5 PX data).

As to `COc1cc(-c2cc(C)cc(Cl)c2)c(C#N)cc1-c1nccc2cc(S(=O)(=O)Nc3ccncn3)ccc12` [Example 160, 1-(3′-chloro-2-cyano-5-methoxy-5′-methyl-4-biphenylyl)-N-4-pyrimidinyl-6-isoquinolinesulfonamide], the 50% inhibitory concentration (IC50) is 13.8 nM at Nav 1.7 (in-vitro Nav 1.7 PX data) and 18300 nM on Nav 1.5 (in-vitro Nav 1.5 PX data).

As for `COc1cc(-c2ccc(Cl)c(C)c2)c(C#N)cc1-c1nccc2cc(S(=O)(=O)Nc3ccncn3)ccc12` [Example 161, 1-(4′-chloro-2-cyano-5-methoxy-3′-methyl-4-biphenylyl)-N-4-pyrimidinyl-6-isoquinolinesulfonamide], the results for the half-inhibitory concentration (IC50) on Nav 1.7 (in-vitro Nav 1.7 PX data) and on Nav 1.5 (in-vitro Nav 1.5 PX data) were 17.4 nM and above 30000 nM, respectively.

For `COc1ccc(F)cc1-c1cc(OC)c(-c2nccc3cc(S(=O)(=O)Nc4ccncn4)ccc23)cc1C#N` [Example 162, 1-(2-cyano-5′-fluoro-2′,5-dimethoxy-4-biphenylyl)-N-4-pyrimidinyl-6-isoquinolinesulfonamide], the results for the half-maximal inhibitory concentration (IC50) at Nav 1.7 (in-vitro Nav 1.7 PX data) and on Nav 1.5 (in-vitro Nav 1.5 PX data) were 470 nM and above 10000 nM, respectively.

On to `COc1cc(-c2ccc(C)c(F)c2)c(C#N)cc1-c1nccc2cc(S(=O)(=O)Nc3ccncn3)ccc12` [Example 163, 1-(2-cyano-3′-fluoro-5-methoxy-4′-methyl-4-biphenylyl)-N-4-pyrimidinyl-6-isoquinolinesulfonamide], for which the IC50 at Nav 1.7 (in-vitro Nav 1.7 PX data) is 92.1 nM; on Nav 1.5 (in-vitro Nav 1.5 PX data), above 10000 nM.

In the case of `COc1cc(Oc2ccccc2C)ccc1-c1nccc2cc(S(=O)(=O)Nc3ccncn3)ccc12` [Example 170, 1-(2-methoxy-4-(2-methylphenoxy)phenyl)-N-4-pyrimidinyl-6-isoquinolinesulfonamide], the figures for the half-maximal inhibitory concentration (IC50) on Nav 1.7 (in-vitro Nav 1.7 PX data) and on Nav 1.5 (in-vitro Nav 1.5 PX data) were 171 nM and above 10000 nM, respectively.
